From patent US20110262508A1, “ANTIMICROBIAL COMPOSITIONS, FORMULATIONS AND USES THEREOF” (priority 2007, published 2011) come the findings set out here.

Values after ≈ are worked out from the molar mass of the structure shown. Read-outs that look alike come from different tables or passages of the source. Square brackets hold non-standard residues; d marks the D form. Peptide text beside a SMILES is read from it.

As usually defined, the MIC is the least concentration at which growth counts as inhibited. As usually defined, the MBC is the lowest tested concentration that kills the bacteria rather than only halting them. High values mean less potent killing, low ones more potent killing.

In the experiment the test system is A. baumannii. Format: cell-based. An excerpt:
Broth dilution methods are e.g., described by Lorian (2007) In: Antibiotics in Laboratory Medicine, Fifth Edition; and In: Clinical and Laboratory Standards Institute, CLSI (formerly NCCLS), In: Methods for Dilution Antimicrobial Susceptibility Tests for Bacteria that Grow Aerobically—Approved Standard—Seventh Edition, CLSI document M7-A7, Villanova, Pa. (NCCLS; January 2006; Vol. 26 No. 2); and In: Clinical and Laboratory Standards Institute, CLSI (formerly NCCLS), Performance Standards for Antimicrobial Susceptibility Testing, Seventeenth Informational Supplement, M100-S17, Vol 27 No. 1 January 2007, all of which are incorporated herein by reference.
The present inventors used such methods to quantitate activity in vitro of antimicrobial peptides of the invention against bacterial isolates, including laboratory strains and 50 clinical isolates of A. baumannii, and S. aureus ATCC Accession No. 2992. Briefly, small volumes of broth are dispensed in sterile, plastic microtiter trays, and 100 μl of serially-diluted antimicrobial peptide (0.1-64 μg) and 100 μl test organism (approximately 1×10^5 C.F.U.), are added. Following aerobic incubation overnight at 35±2° C. Control samples lacked peptide (Growth control), or lacked peptide and bacteria (Sterility control). The trays were examined visually and the minimal inhibitory concentration (MIC) of peptide required to inhibit bacterial growth were determined. The minimum bactericidal concentration (MBC) was estimated by sub-culturing the wells for which no bacterial growth was visible to the naked eye, to thereby determine a concentration of antimicrobial that reduces the original inoculum by at least about 99.9%.

For the compound `CC(C)C[C@@H](NC(=O)[C@@H](CCCNC(=N)N)NC(=O)[C@H](N)Cc1ccc(O)cc1)C(=O)N[C@H](CC(C)C)C(=O)N[C@H](CCCNC(=N)N)C(=O)N[C@H](CCCCN)C(=O)N[C@@H](C(=O)N[C@@H](C(=O)N[C@H](Cc1ccccc1)C(=O)N[C@H](CS)C(=O)N[C@H](CC(C)C)C(=O)N[C@H](CCCCN)C(=O)N[C@@H](C(=O)N[C@H](CO)C(=O)N[C@H](CC(C)C)C(=O)N[C@@H](C(=O)N[C@H](CCCCN)C(=O)N1CCC[C@@H]1C(=O)N[C@H](Cc1ccccc1)C(=O)N[C@H](Cc1c[nH]cn1)C(=O)N[C@H](Cc1ccccc1)C(=O)N[C@H](Cc1ccc(O)cc1)C(=O)N1CCC[C@@H]1C(=O)O)[C@H](C)O)[C@H](C)O)[C@H](C)O)[C@H](C)O` [Ac5r] (H-[dY][dR][dL][dL][dR][dK][dT][dT][dF][dC][dL][dK][dT][dS][dL][dT][dK][dP][dF][dH][dF][dY][dP]-OH; N-terminus and C-terminus assumed), the “MIC (μM) for amidated peptide” value is 5 µM and the “MIC (μM) for non-amidated Peptide” value was 15 µM.
Regarding `CSCC[C@H](NC(=O)[C@H](CC(C)C)NC(=O)[C@H](CCCCN)NC(=O)[C@H](CCCCN)NC(=O)[C@@H](NC(=O)[C@@H](NC(=O)[C@H](C)NC(=O)[C@H](Cc1ccccc1)NC(=O)[C@H](Cc1ccc(O)cc1)NC(=O)CNC(=O)[C@H](CS)NC(=O)[C@H](Cc1c[nH]cn1)NC(=O)[C@@H]1CCCN1C(=O)CNC(=O)CN)[C@@H](C)O)[C@@H](C)O)C(=O)N[C@@H](CCCNC(=N)N)C(=O)N[C@@H](CCCCN)C(=O)N[C@H](C(=O)N1CCC[C@H]1C(=O)NCC(=O)N[C@@H](CCCNC(=N)N)C(=O)N[C@@H](CC(C)C)C(=O)N[C@H](C(=O)O)C(C)C)C(C)C` [Ac330] (H-GGPHCGYFATTKKLMRKVPGRLV-OH; N-terminus and C-terminus assumed), the “MIC” value (A. baumannii (Table 8)) turned out to be 20 µM (≈ 50.3 µg/mL). In addition, where the note is “A. baumannii (Table 8), reduces original inoculum by at least about 99.9%”, the “MBC” value worked out at 40 µM (≈ 101 µg/mL). The “MIC (μM) for non-amidated Peptide” value (non-amidated peptide, strongly inhibitory against A. baumannii (Table 7)) was found to be 20 µM.
Regarding `CC[C@H](C)[C@H](NC(=O)[C@H](CS)NC(=O)[C@H](CS)NC(=O)[C@H](CCCNC(=N)N)NC(=O)[C@H](CC(=O)O)NC(=O)[C@H](CO)NC(=O)[C@H](CC(C)C)NC(=O)[C@H](CCCNC(=N)N)NC(=O)[C@H](CCCNC(=N)N)NC(=O)[C@H](CC(C)C)NC(=O)[C@H](Cc1ccccc1)NC(=O)CNC(=O)[C@H](CO)NC(=O)[C@@H]1CCCN1C(=O)[C@H](Cc1c[nH]c2ccccc12)NC(=O)[C@@H](NC(=O)[C@@H]1CCCN1)C(C)C)C(=O)N[C@@H](Cc1c[nH]cn1)C(=O)N[C@@H](CO)C(=O)N[C@@H](CCCNC(=N)N)C(=O)N[C@@H](CCC(N)=O)C(=O)N[C@@H](C)C(=O)N[C@@H](CCC(N)=O)C(=O)O` [Ac329] (H-PVWPSGFLRRLSDRCCIHSRQAQ-OH; N-terminus and C-terminus assumed), the “MBC” value stood at 39 µM (≈ 106 µg/mL) and the “MIC” value amounted to 30 µM (≈ 81.4 µg/mL).
On to `CC(C)C[C@H](NC(=O)CNC(=O)[C@H](CS)NC(=O)[C@H](CO)NC(=O)CNC(=O)[C@H](CCCNC(=N)N)NC(=O)[C@H](CS)NC(=O)[C@H](CCCCN)NC(=O)[C@H](CO)NC(=O)[C@H](CC(C)C)NC(=O)[C@@H](NC(=O)[C@H](CC(N)=O)NC(=O)[C@H](CS)NC(=O)[C@H](C)NC(=O)[C@H](CCCNC(=N)N)NC(=O)[C@@H](N)Cc1c[nH]c2ccccc12)[C@@H](C)O)C(=O)N[C@@H](CCCNC(=N)N)C(=O)N[C@H](C(=O)N[C@@H](Cc1c[nH]c2ccccc12)C(=O)N[C@@H](C)C(=O)NCC(=O)N[C@@H](CCCNC(=N)N)C(=O)NCC(=O)O)C(C)C` [Ac380] (H-WRACNTLSKCRGSCGLRVWAGRG-OH; N-terminus and C-terminus assumed), for which the “MIC” value was 40 µM (≈ 102 µg/mL).
